Laboratory results taken from the supplement of paper PMC10307832.

Key:
Assay in all cases: relative viability (nuclei count vs DMSO), 5 days (fraction); higher = more cells survive
BEN = tested on: BEN
How it was run: (§1)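 Relative viability equals treated-well nuclei counts divided by vehicle-well nuclei counts. Counts came from 4× images of lung cancer cell lines grown in 1536-well plates for 5 days after pin-tool dosing on the day after seeding. Dosing used one drug alone or a fixed anchor-drug dose plus five library-drug doses (not always all listed) in √10 steps, and values are medians of duplicate plates.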

NCI-H838 = tested on: NCI-H838
How it was run: as §1

LCLC-97TM1 = tested on: LCLC-97TM1
How it was run: as §1

HOP-62 = tested on: HOP-62
How it was run: as §1

LOU-NH91 = tested on: LOU-NH91
How it was run: as §1

NCI-H1355 = tested on: NCI-H1355
How it was run: as §1

NCI-H1651 = tested on: NCI-H1651
How it was run: as §1

SK-LU-1 = tested on: SK-LU-1
How it was run: as §1

SW 1573 = tested on: SW 1573
How it was run: as §1

201T = tested on: 201T
How it was run: as §1

NCI-H3122 = tested on: NCI-H3122
How it was run: as §1

NCI-H441 = tested on: NCI-H441
How it was run: as §1

NCI-H1915 = tested on: NCI-H1915
How it was run: as §1

NCI-H2347 = tested on: NCI-H2347
How it was run: as §1

NCI-H650 = tested on: NCI-H650
How it was run: as §1

CAL-12T = tested on: CAL-12T
How it was run: as §1

NCI-H1563 = tested on: NCI-H1563
How it was run: as §1

NCI-H322M = tested on: NCI-H322M
How it was run: as §1

HCC-78 = tested on: HCC-78
How it was run: as §1

NCI-H1395 = tested on: NCI-H1395
How it was run: as §1

NCI-H2126 = tested on: NCI-H2126
How it was run: as §1

NCI-H1944 = tested on: NCI-H1944
How it was run: as §1

NCI-H1793 = tested on: NCI-H1793
How it was run: as §1

SMILES: Cc1csc(=NC2CCCCC2)n1/N=C/c1ccc(O)c(O)c1O [MIM1] + COc1cc2c(Oc3ccc(NC(=O)C4(C(=O)Nc5ccc(F)cc5)CC4)cc3F)ccnc2cc1OCCCN1CCOCC1 [Foretinib] (partner 0.25 µM)
- relative viability (BEN; first compound 0.2 µM): 0.705
- relative viability (BEN; first compound 0.6325 µM): 0.531
- relative viability (BEN; first compound 2 µM): 0.719
- relative viability (BEN; first compound 6.325 µM): 0.551
- relative viability (BEN; first compound 20 µM): 0.294
- relative viability (NCI-H838; first compound 0.2 µM): 1.01
- relative viability (NCI-H838; first compound 0.6325 µM): 1.01
- relative viability (NCI-H838; first compound 2 µM): 0.761
- relative viability (NCI-H838; first compound 6.325 µM): 0.853
- relative viability (NCI-H838; first compound 20 µM): 0.657
- relative viability (LCLC-97TM1; first compound 0.2 µM): 0.92
- relative viability (LCLC-97TM1; first compound 0.6325 µM): 1.08
- relative viability (LCLC-97TM1; first compound 2 µM): 0.888
- relative viability (LCLC-97TM1; first compound 6.325 µM): 0.611
- relative viability (LCLC-97TM1; first compound 20 µM): 0.259
- relative viability (HOP-62; first compound 0.2 µM): 1.14
- relative viability (HOP-62; first compound 0.6325 µM): 1.1
- relative viability (HOP-62; first compound 2 µM): 0.986
- relative viability (HOP-62; first compound 6.325 µM): 0.94
- relative viability (HOP-62; first compound 20 µM): 0.278
- relative viability (LOU-NH91; first compound 0.2 µM): 0.9
- relative viability (LOU-NH91; first compound 0.6325 µM): 0.965
- relative viability (LOU-NH91; first compound 2 µM): 0.833
- relative viability (LOU-NH91; first compound 6.325 µM): 0.807
- relative viability (LOU-NH91; first compound 20 µM): 0.39
- relative viability (NCI-H1355; first compound 0.2 µM): 0.911
- relative viability (NCI-H1355; first compound 0.6325 µM): 0.885
- relative viability (NCI-H1355; first compound 2 µM): 0.976
- relative viability (NCI-H1355; first compound 6.325 µM): 0.87
- relative viability (NCI-H1355; first compound 20 µM): 0.629
- relative viability (NCI-H1651; first compound 0.2 µM): 0.722
- relative viability (NCI-H1651; first compound 0.6325 µM): 0.741
- relative viability (NCI-H1651; first compound 2 µM): 0.824
- relative viability (NCI-H1651; first compound 6.325 µM): 0.648
- relative viability (NCI-H1651; first compound 20 µM): 0.652
- relative viability (SK-LU-1; first compound 0.2 µM): 0.849
- relative viability (SK-LU-1; first compound 0.6325 µM): 0.821
- relative viability (SK-LU-1; first compound 2 µM): 0.849
- relative viability (SK-LU-1; first compound 6.325 µM): 0.75
- relative viability (SK-LU-1; first compound 20 µM): 0.788
- relative viability (SW 1573; first compound 0.2 µM): 1.04
- relative viability (SW 1573; first compound 0.6325 µM): 0.963
- relative viability (SW 1573; first compound 2 µM): 0.809
- relative viability (SW 1573; first compound 6.325 µM): 0.871
- relative viability (SW 1573; first compound 20 µM): 0.539
- relative viability (201T; first compound 0.2 µM): 1.11
- relative viability (201T; first compound 2 µM): 0.993
- relative viability (201T; first compound 6.325 µM): 0.709
- relative viability (201T; first compound 20 µM): 0.483
- relative viability (NCI-H3122; first compound 0.2 µM): 0.891
- relative viability (NCI-H3122; first compound 0.6325 µM): 1.03
- relative viability (NCI-H3122; first compound 2 µM): 1.03
- relative viability (NCI-H3122; first compound 6.325 µM): 0.683
- relative viability (NCI-H3122; first compound 20 µM): 0.64
- relative viability (NCI-H441; first compound 0.2 µM): 1.17
- relative viability (NCI-H441; first compound 2 µM): 1.01
- relative viability (NCI-H441; first compound 6.325 µM): 0.617
- relative viability (NCI-H441; first compound 20 µM): 0.256
- relative viability (NCI-H1915; first compound 0.2 µM): 1.13
- relative viability (NCI-H1915; first compound 0.6325 µM): 1.07
- relative viability (NCI-H1915; first compound 2 µM): 1.07
- relative viability (NCI-H1915; first compound 6.325 µM): 0.83
- relative viability (NCI-H1915; first compound 20 µM): 0.251
- relative viability (NCI-H2347; first compound 0.2 µM): 0.953
- relative viability (NCI-H2347; first compound 0.6325 µM): 0.568
- relative viability (NCI-H2347; first compound 2 µM): 0.567
- relative viability (NCI-H2347; first compound 6.325 µM): 1.18
- relative viability (NCI-H2347; first compound 20 µM): 0.445
- relative viability (NCI-H650; first compound 0.2 µM): 1.05
- relative viability (NCI-H650; first compound 0.6325 µM): 1.05
- relative viability (NCI-H650; first compound 2 µM): 1.02
- relative viability (NCI-H650; first compound 6.325 µM): 0.924
- relative viability (NCI-H650; first compound 20 µM): 0.412
- relative viability (CAL-12T; first compound 0.2 µM): 1.03
- relative viability (CAL-12T; first compound 0.6325 µM): 1.16
- relative viability (CAL-12T; first compound 2 µM): 1.2
- relative viability (CAL-12T; first compound 6.325 µM): 0.68
- relative viability (CAL-12T; first compound 20 µM): 0.475
- relative viability (NCI-H1563; first compound 0.2 µM): 0.971
- relative viability (NCI-H1563; first compound 0.6325 µM): 0.975
- relative viability (NCI-H1563; first compound 2 µM): 0.866
- relative viability (NCI-H1563; first compound 6.325 µM): 0.819
- relative viability (NCI-H1563; first compound 20 µM): 0.772
- relative viability (NCI-H322M; first compound 0.2 µM): 0.986
- relative viability (NCI-H322M; first compound 0.6325 µM): 0.895
- relative viability (NCI-H322M; first compound 2 µM): 0.867
- relative viability (NCI-H322M; first compound 6.325 µM): 0.85
- relative viability (NCI-H322M; first compound 20 µM): 0.548
- relative viability (HCC-78; first compound 0.2 µM): 0.558
- relative viability (HCC-78; first compound 0.6325 µM): 0.563
- relative viability (HCC-78; first compound 2 µM): 0.539
- relative viability (HCC-78; first compound 6.325 µM): 0.553
- relative viability (HCC-78; first compound 20 µM): 0.911
- relative viability (NCI-H1395; first compound 0.2 µM): 1.03
- relative viability (NCI-H1395; first compound 0.6325 µM): 0.975
- relative viability (NCI-H1395; first compound 2 µM): 0.905
- relative viability (NCI-H1395; first compound 6.325 µM): 0.917
- relative viability (NCI-H1395; first compound 20 µM): 0.388
- relative viability (NCI-H2126; first compound 0.2 µM): 1.14
- relative viability (NCI-H2126; first compound 0.6325 µM): 1.17
- relative viability (NCI-H2126; first compound 2 µM): 1.35
- relative viability (NCI-H2126; first compound 6.325 µM): 1.12
- relative viability (NCI-H2126; first compound 20 µM): 0.491
- relative viability (NCI-H1944; first compound 0.2 µM): 0.908
- relative viability (NCI-H1944; first compound 0.6325 µM): 0.93
- relative viability (NCI-H1944; first compound 2 µM): 0.581
- relative viability (NCI-H1944; first compound 6.325 µM): 0.709
- relative viability (NCI-H1944; first compound 20 µM): 0.564
- relative viability (NCI-H1793; first compound 0.2 µM): 0.793
- relative viability (NCI-H1793; first compound 2 µM): 0.735
- relative viability (NCI-H1793; first compound 6.325 µM): 0.686
- relative viability (NCI-H1793; first compound 20 µM): 1.01
